Measurements reported in patent US20260356817A1, “AMINOPYRIMIDINE AND AMINOTRIAZINE DERIVATIVES AS MYC PROTEIN MODULATORS” (Sanford Burnham Prebys Medical Discovery Institute, priority 2022, published 2026).
pIC50: −log10 of the molar value. Where two headings read alike, the source gives them in different places.

Tested on: Myc
Experiment: Myc inhibition assay: Myc expression per cell by anti-Myc immunofluorescence, high-content imaging
Type: cell-based, human (patient-derived medulloblastoma xenograft cells)
Details: medulloblastoma PDX cells, 4 h
In short: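 Cells from Myc-driven medulloblastoma patient-derived orthotopic xenografts, propagated only in NSG mouse cerebellum, were dissociated and plated in serum-free medium. After overnight recovery, compounds were applied for 4 hours; cells were then fixed, stained for Myc and DAPI, and per-cell Myc quantified by high-content imaging to derive IC50.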

[1] = Table 1, read-out: IC50 (Myc inhibition)
[2] = Table 2, read-out: MYC Inhibition IC50

Row | SMILES | pIC50 [1] | pIC50 [2]
1 | FC(F)(F)c1cccc(Nc2nccc(-c3ccc4[nH]nnc4c3)n2)c1 [Compound 139, 4-(1H-Benzo[d][1,2,3]triazol-5-yl)-N-(3-(trifluoromethyl)phenyl)pyrimidin-2-amine] | 6.00 to 6.70 | 6.00 to 6.70
2 | FC(F)(F)c1cccc(Nc2nccc(-c3cnc4cc[nH]c4c3)n2)c1 [Compound 132, 4-(1H-pyrrolo[3,2-b]pyridin-6-yl)-N-(3-(trifluoromethyl)phenyl)pyrimidin-2-amine] | 6.00 to 6.70 | 6.00 to 6.70
3 | c1cc(Nc2nccc(-c3ccc4[nH]cnc4c3)n2)cc(-n2cccn2)c1 [Compound 8, N-(3-(1H-pyrazol-1-yl)phenyl)-4-(1H-benzo[d]imidazol-5-yl)pyrimidin-2-amine] | > 6.70 | > 6.70
4 | FC(F)(F)Oc1cccc(Nc2nccc(-c3ccc4[nH]cnc4c3)n2)c1 [Compound 100, 4-(1H-benzo[d]imidazol-5-yl)-N-(3-(trifluoromethoxy)phenyl)pyrimidin-2-amine] | 6.00 to 6.70 | 6.00 to 6.70
5 | COc1cc(-c2ccnc(Nc3cc(F)cc(F)c3)n2)ccn1 [Compound 148, N-(3,5-difluorophenyl)-4-(2-methoxypyridin-4-yl)pyrimidin-2-amine] | 5.00 to 6.00 | 5.00 to 6.00
6 | Oc1cc(-c2ccnc(Nc3cc(C(F)(F)F)ccn3)n2)ccn1 [Compound 158, 4-(2-((4-(trifluoromethyl)pyridin-2-yl)amino)pyrimidin-4-yl)pyridin-2-ol] | 4.00 to 5.00 | 4.00 to 5.00
7 | Cc1ccc(Nc2nccc(-c3ccc4[nH]cnc4c3)n2)cc1C [Compound 60, 4-(1H-benzo[d]imidazol-5-yl)-N-(3,4-dimethylphenyl)pyrimidin-2-amine] | 6.00 to 6.70 | 6.00 to 6.70
8 | Clc1cccc(Nc2nccc(-c3ccc4[nH]cnc4c3)n2)c1 [Compound 69, 4-(1H-benzo[d]imidazol-5-yl)-N-(3-chlorophenyl)pyrimidin-2-amine] | > 6.70 | > 6.70
9 | Oc1cccc(Nc2nccc(-c3ccc4[nH]cnc4c3)n2)n1 [Compound 22, 6-((4-(1H-benzo[d]imidazol-5-yl)pyrimidin-2-yl)amino)pyridin-2-ol] | 4.00 to 5.00 | 4.00 to 5.00
10 | OCCOc1cccc(Nc2nccc(-c3ccnc(O)c3)n2)c1 [Compound 128, 4-(2-((3-(2-hydroxyethoxy)phenyl)amino)pyrimidin-4-yl)pyridin-2-ol] | 5.00 to 6.00 | 5.00 to 6.00
11 | CCN(CC)C(=O)c1cccc(Nc2nccc(-c3ccc4[nH]cnc4c3)n2)c1 [Compound 19, 3-((4-(1H-benzo[d]imidazol-5-yl)pyrimidin-2-yl)amino)-N,N-diethylbenzamide] | 6.00 to 6.70 | 6.00 to 6.70
12 | CC(C)Nc1nccc(-c2ccc3[nH]cnc3c2)n1 [Compound 104, 4-(1H-benzo[d]imidazol-5-yl)-N-isopropylpyrimidin-2-amine] | 5.00 to 6.00 | 5.00 to 6.00
13 | CC(C)c1nnc(Nc2nccc(-c3ccc4[nH]cnc4c3)n2)[nH]1 [Compound 54, 4-(1H-benzo[d]imidazol-5-yl)-N-(5-isopropyl-4H-1,2,4-triazol-3-yl)pyrimidin-2-amine] | 5.00 to 6.00 | 5.00 to 6.00
14 | COc1cc(-c2ccnc(Nc3cccc(C(C)(C)C)c3)n2)ccn1 [Compound 150, N-(3-(tert-butyl)phenyl)-4-(2-methoxypyridin-4-yl)pyrimidin-2-amine] | 5.00 to 6.00 | 5.00 to 6.00
15 | Clc1cc(Cl)cc(Nc2nccc(-c3ccc4[nH]cnc4c3)n2)c1 [Compound 49, 4-(1H-benzo[d]imidazol-5-yl)-N-(3,5-dichlorophenyl)pyrimidin-2-amine] | 5.00 to 6.00 | 5.00 to 6.00
16 | NC(=O)c1cccc(Nc2nccc(-c3ccc4[nH]cnc4c3)n2)c1 [Compound 67, 3-((4-(1H-benzo[d]imidazol-5-yl)pyrimidin-2-yl)amino)benzamide] | 6.00 to 6.70 | 6.00 to 6.70

The next lines start with the values.

Row | pIC50 [1] | pIC50 [2] | SMILES
17 | > 6.70 | > 6.70 | O=C(Nc1cccc(Nc2nccc(-c3ccc4[nH]cnc4c3)n2)c1)c1ccco1 [Compound 254, N-(3-((4-(1H-benzo[d]imidazol-5-yl)pyrimidin-2-yl)amino)phenyl)furan-2-carboxamide]
18 | 5.00 to 6.00 | 5.00 to 6.00 | COc1ncc(-c2ccnc(Nc3cccc(F)c3)n2)s1 [Compound 180, N-(3-fluorophenyl)-4-(2-methoxythiazol-5-yl)pyrimidin-2-amine]
19 | 6.00 to 6.70 | 6.00 to 6.70 | Oc1ncc(-c2ccnc(Nc3cccc(F)c3)n2)s1 [Compound 181, 5-(2-((3-fluorophenyl)amino)pyrimidin-4-yl)thiazol-2-ol]
20 | > 6.70 | > 6.70 | Fc1cc(Nc2nccc(-c3ccc4[nH]cnc4c3)n2)cc(F)c1F [Compound 258, 4-(1H-benzo[d]imidazol-5-yl)-N-(3,4,5-trifluorophenyl)pyrimidin-2-amine]
21 | 5.00 to 6.00 | 5.00 to 6.00 | COC(=O)c1cccc(Nc2nccc(-c3ccnc(O)c3)n2)c1 [Compound 185, methyl 3-((4-(2-hydroxypyridin-4-yl)pyrimidin-2-yl)amino)benzoate]
22 | 4.00 to 5.00 | 4.00 to 5.00 | Oc1cccc(-c2ccnc(Nc3ccccc3)n2)n1 [Compound 226, 6-(2-(phenylamino)pyrimidin-4-yl)pyridin-2-ol]
23 | 5.00 to 6.00 | 5.00 to 6.00 | CS(=O)(=O)Nc1cccc(Nc2nccc(-c3ccc4[nH]cnc4c3)n2)c1 [Compound 255, N-(3-((4-(1H-benzo[d]imidazol-5-yl)pyrimidin-2-yl)amino)phenyl)methanesulfonamide]
24 | 4.00 to 5.00 | 4.00 to 5.00 | COc1cc(-c2ccnc(Nc3cccc(F)c3F)n2)ccn1 [Compound 206, N-(2,3-difluorophenyl)-4-(2-methoxypyridin-4-yl)pyrimidin-2-amine]
25 | 5.00 to 6.00 | 5.00 to 6.00 | Oc1cc(-c2ncnc(Nc3ccccc3)n2)ccn1 [Compound 233, 4-(4-(phenylamino)-1,3,5-triazin-2-yl)pyridin-2-ol]
26 | > 6.70 | > 6.70 | FC(F)(F)c1cccc(Nc2nccc(-c3cnc4nc[nH]c4c3)n2)c1 [Compound 161, 4-(1H-imidazo[4,5-b]pyridin-6-yl)-N-(3-(trifluoromethyl)phenyl)pyrimidin-2-amine]
27 | 4.00 to 5.00 | 4.00 to 5.00 | COc1ccc(-c2ccnc(Nc3ccccc3)n2)cn1 [Compound 239, 4-(6-methoxypyridin-3-yl)-N-phenylpyrimidin-2-amine]
28 | 5.00 to 6.00 | 5.00 to 6.00 | Fc1cccc(Nc2nccc(-c3ccc4[nH]ncc4c3)n2)c1 [Compound 165, N-(3-Fluorophenyl)-4-(1H-indazol-5-yl)pyrimidin-2-amine]
29 | 4.00 to 5.00 | 4.00 to 5.00 | COc1cc(-c2ccnc(Nc3ccccc3F)n2)ccn1 [Compound 208, N-(2-fluorophenyl)-4-(2-methoxypyridin-4-yl)pyrimidin-2-amine]
30 | 4.00 to 5.00 | 4.00 to 5.00 | Oc1cc(-c2ccnc(Nc3ccccc3F)n2)ccn1 [Compound 207, 4-(2-((2-fluorophenyl)amino)pyrimidin-4-yl)pyridin-2-ol]
31 | > 6.70 | > 6.70 | FC(F)c1cccc(Nc2cc(-c3ccc4[nH]cnc4c3)ccn2)n1 [Compound 278, N-(4-(1H-benzo[d]imidazol-5-yl)pyridin-2-yl)-6-(difluoromethyl)pyridin-2-amine]
